Measured values published in article PMC9822194, “Chemoselective Synthesis of Mannich Adducts from 1,4-Naphthoquinones and Profile as Autophagic Inducers in Oral Squamous Cell Carcinoma” (Molecules, 2022).
Where two headings read alike, the source gives them in different places.

Legend:
[1] = system: SCC-4 cells; assay: MTT cell viability assay, SCC4; type: cell-based, Human; details: Homo sapiens, SCC-4, 48 h, read-out: SCC4 IC50
Experimental: (§1) Cells and reagents. Human SCC-4, SCC-9 and SCC-25 cells, derived from a human oral tongue SCC were obtained from the ATCC (CRL-1624; CRL-1629 and CRL-1628, respectively) and maintained at 1:1 DMEM/F12 (Dulbecco’s modified Eagle medium and Ham’s F12 medium; Gibco, Thermo Fisher, Waltham, MA, USA) supplemented with 10% (v/v) FBS (fetal bovine serum; Invitrogen, Thermo Fisher, Waltham, MA, USA) and 400 ng/mL hydrocortisone (Sigma-Aldrich Co., St. Louis, MO, USA). Primary normal human gingival fibroblasts were obtained from the ATCC (PCS-201-018), maintained in DMEM supplemented with 10% (v/v) FBS, and used in a maximum of 6 passages. Cells were grown in a humidified environment containing 5% CO2 at 37 °C. […] Carboplatin in water (Fauldcarbo®; Libbs Farmacêutica, São Paulo, SP, Brazil) was used as a standard anticancer compound.
(§2) Cell viability assay (cytotoxicity) and stability assay. To assess cell viability, cells were grown in triplicate in 96-well plates (5 × 10^3 cells/well) until confluence when treated with the different compounds as in Machado et al.. Briefly, DMSO in the same concentrations was used as a 100% cell viability control. After 48 h, cells were incubated with 5 mg/mL MTT reagent (3-(4,5-dimethyl-2-thiazolyl)-2,5-diphenyl-2H-tetrazolium bromide) (Sigma-Aldrich Co., St. Louis, MO, USA) for 3.5 h. Formazan crystals were dissolved in MTT solvent (DMSO/methanol 1:1 v/v) and the absorbance at 560 nm was evaluated using an EPOCH microplate spectrophotometer (BioTek Instruments, Winooski, VT, USA) with background absorbance at 670 nm subtracted. Each of the eighteen compounds was tested at six or seven different concentrations, ranging from 0.3 µM to 200 µM in cancer cell lines (SCC-4, SCC-9 and SCC-25) and 0.4 µM to 300 µM in normal primary human gingival fibroblast.
(§3) Statistical analysis, IC50 calculation. IC50 values for MTT assays were obtained by non-linear regression using the GraphPad Prism 5.0 software (GraphPad, San Diego, CA, USA) from at least three independent experiments. Data are presented as means ± SD. A dose-response (inhibitor) vs response curve using the least squares method was used to determine the IC50, SD and R2 of the data. The selectivity index was calculated as S.I. = IC50 of the compound in normal oral fibroblast cells/IC50 of the same compound for each oral cancer cell line (SCC-4, SCC-9 and SCC-25) and the mean was calculated when indicated.

[2] = system: OSCC cell lines (SCC 4, SCC-9 and SCC-25); assay: MTT assay, mean over three OSCC cell lines and average selectivity index; type: cell-based, Human
Experimental: as §2, §3

[3] = system: normal human gingival fibroblasts; assay: MTT cell viability assay, normal fibroblasts; type: cell-based; details: Homo sapiens, Fibroblast, 48 h, read-out: Primary Gengival Fibroblast IC50
Experimental: as §1, §2, §3

[4] = system: SCC9 cells; assay: MTT assay with cell death inhibitors (ZVAD, necrostatin-1, 3-MA); type: cell-based, Human; details: SCC9, 3-MA 5000 µM
Experimental: as §2, with “After 48 h, cells were incubated with 5 mg/mL MTT reagent (3-(4,5-dimethyl-2-thiazolyl)-2,5-diphenyl-2H-tetrazolium bromide) (Sigma-Aldrich Co., St.” left out

[5] = system: SCC-25 cells; assay: MTT cell viability assay, SCC25; type: cell-based, Human; details: Homo sapiens, SCC-25, 48 h, read-out: SCC25 IC50
Experimental: as §1, §2, §3

[6] = system: SCC-9 (OSCC cells); assay: MTT cell viability assay (cytotoxicity), SCC9; type: cell-based, Human; details: for IC50: Homo sapiens, SCC-9, 48 h
Experimental: as §1, §2, §3

CC(C)=CC[C@@H](O)C1=CC(=O)c2c(O)ccc(O)c2C1=O [Shikonin, reference compound] was tested. Which IC50 [1] did it give?
Its IC50 is 1910 nM.

What about the IC50 ([2]; Homo sapiens, read-out: Oral Tumor Cells Mean IC50) of the same molecule?
Its IC50 is 1740 nM.

And the “Average S.I.” value ([2]; average selectivity index over SCC-4, SCC-9, SCC-25 vs normal fibroblasts)?
The value was 0.98.

What about the IC50 [3] of the same molecule?
The IC50 was 1720 nM.

What about the “Effect of autophagy inhibitor 3-MA on induced cell death” value [4] of the same molecule?
Its value is “reduced cell death”.

What about the IC50 [5] of the same molecule?
Its IC50 is 1500 nM.

And the IC50 ([6]; read-out: SCC9 IC50)?
Its IC50 is 1810 nM.

And the IC50 ([6]; read-out: SCC9—Oral Cancer IC50)?
The IC50 was 1800 nM.

And the “Selective Index (S.I.)” value ([6]; IC50 normal oral fibroblasts/IC50 SCC-9)?
The value was 0.95.
